According to patent US7652011B2, “4-[(arylmethyl)aminomethyl]piperidine derivatives, their preparation and their therapeutic application” (sanofi-aventis, priority 2003, dated 2010):

Q: For `Cn1cccc1CNCC1(c2cccc(C(F)(F)F)c2)CCN(C(=O)CN2CCN(c3cnccn3)CC2)CC1` [Compound 1, [(1-Methyl-1H-pyrrol-2-yl)methyl][[1-[(4-pyrazin-2-ylpiperazin-1-yl)acetyl]-4-[3-(trifluoromethyl)phenyl]piperidin-4-yl]methyl]amine], which melting point is on record?
A: 104 to 105 °C
